Our source for the TGI and GI50 values is PubChem BioAssay (NCI).

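Dose response: 5 concentrations. Exposure: 48 h. Format: 96-well plates. Endpoint: linear interpolation; highest concentration if not reached. GI50 = concentration required for 50% inhibition of growth. TGI: concentration producing complete growth inhibition.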 Where only a bound is given, the exact number is not on record here.

Test systems include HOP-62 NSCLC; DU-145 prostate; CCRF-CEM leukemia; SN12C renal; 786-0 renal; SK-OV-3 ovarian; KM12 colon; MCF7 breast; MALME-3M melanoma; RXF 393 renal; TK-10 renal; OVCAR-4 ovarian; HCT-116 colon; PC-3 prostate; EKVX NSCLC; MOLT-4 leukemia.
Common to all, as to assay: growth of human tumour cells (NCI), 48 h

Take `CC(=O)OCc1cncn1S(=O)(=O)c1ccc(C)cc1`: the TGI in the assay on HOP-62 NSCLC, in the assay on DU-145 prostate, with CCRF-CEM leukemia, in the assay with SN12C renal, in the assay with 786-0 renal and in the assay on SK-OV-3 ovarian was more than 100 µM in each case. In addition, the TGI in the assay with KM12 colon, in the assay with MCF7 breast, in the assay with MALME-3M melanoma, in the assay with RXF 393 renal, in the assay on TK-10 renal and with OVCAR-4 ovarian was more than 100 µM each time. Besides, the TGI in the assay with HCT-116 colon, in the assay on PC-3 prostate, in the assay with EKVX NSCLC and with MOLT-4 leukemia was more than 100 µM in each case.

As for `C(/Cc1ccc2c(c1)OCO2)=N\NC1=NCCN1`, the TGI with HOP-62 NSCLC, with DU-145 prostate, in the assay with CCRF-CEM leukemia, with SN12C renal, in the assay on 786-0 renal and in the assay on SK-OV-3 ovarian was more than 100 µM in each case. Besides, the TGI with KM12 colon, in the assay on MCF7 breast, in the assay on MALME-3M melanoma, in the assay with RXF 393 renal, with TK-10 renal and in the assay on OVCAR-4 ovarian was more than 100 µM throughout. Moreover, the TGI with HCT-116 colon, with PC-3 prostate, in the assay on EKVX NSCLC and in the assay with MOLT-4 leukemia was more than 100 µM each time.

Turning to `COC(OC)C1OCC(n2cc(F)c(=O)[nH]c2=O)C1O` (configuration not stated), the TGI in the assay on HOP-62 NSCLC, in the assay on DU-145 prostate, with CCRF-CEM leukemia, in the assay on SN12C renal, in the assay on 786-0 renal and in the assay with SK-OV-3 ovarian was more than 100 µM in each case. Also, the TGI in the assay on KM12 colon, with MCF7 breast, in the assay on MALME-3M melanoma, in the assay on RXF 393 renal, with TK-10 renal and with OVCAR-4 ovarian was more than 100 µM in each case. For the same compound, the TGI with HCT-116 colon, in the assay with PC-3 prostate, in the assay with EKVX NSCLC and in the assay with MOLT-4 leukemia was more than 100 µM in each case.

Turning to `CSc1cc(-c2ccccn2)nc(-c2ccccn2)c1`, the TGI in the assay on HOP-62 NSCLC is 4.49 µM; in the assay with DU-145 prostate, 26.6 µM; with CCRF-CEM leukemia, more than 100 µM; in the assay with SN12C renal it was 13.4 µM; in the assay with 786-0 renal, 11.4 µM; in the assay on SK-OV-3 ovarian, 10.8 µM. Moreover, the TGI in the assay with KM12 colon is 14.4 µM; with MCF7 breast it was 10.1 µM; with MALME-3M melanoma it was 9.18 µM; in the assay with RXF 393 renal it was 4.47 µM; in the assay on TK-10 renal, 0.75 µM; with OVCAR-4 ovarian it was 13.2 µM. Besides, the TGI was 11.7 µM with HCT-116 colon, 17.9 µM in the assay on PC-3 prostate, 12.3 µM in the assay on EKVX NSCLC and more than 100 µM in the assay with MOLT-4 leukemia.

Regarding `CCO[C@@]1(COCc2ccccc2)OC(=O)C[C@@H]1N1C(=O)OC[C@@H]1c1ccccc1`, the TGI in the assay with HOP-62 NSCLC is 73 µM; in the assay on DU-145 prostate, more than 100 µM; in the assay with CCRF-CEM leukemia, more than 100 µM; in the assay on SN12C renal, more than 100 µM; with 786-0 renal it was more than 100 µM; in the assay on SK-OV-3 ovarian, more than 100 µM. Besides, the TGI with KM12 colon, in the assay with MCF7 breast, in the assay on MALME-3M melanoma, in the assay on RXF 393 renal, in the assay with TK-10 renal and in the assay on OVCAR-4 ovarian was more than 100 µM in each case. The TGI in the assay with HCT-116 colon, in the assay with PC-3 prostate, in the assay with EKVX NSCLC and in the assay with MOLT-4 leukemia was more than 100 µM each time.

Turning to `COc1cc(O)c2c(=O)c3c(C)cccc3n(C)c2c1`, the TGI with HOP-62 NSCLC, in the assay with DU-145 prostate, with CCRF-CEM leukemia, in the assay with SN12C renal, in the assay with 786-0 renal and in the assay with SK-OV-3 ovarian was more than 10 µM each time. For the same compound, the TGI with KM12 colon, in the assay with MCF7 breast, with MALME-3M melanoma, in the assay with RXF 393 renal, in the assay with TK-10 renal and in the assay on OVCAR-4 ovarian was more than 10 µM each time. In addition, the TGI in the assay with HCT-116 colon, with PC-3 prostate, with EKVX NSCLC and in the assay on MOLT-4 leukemia was more than 10 µM in each case.

Consider `CCOC(=O)c1c(Br)c(-c2ccc(OC)cc2)c(Br)n1C`, for which the TGI in the assay on HOP-62 NSCLC was 39.7 µM; in the assay with DU-145 prostate, more than 100 µM; in the assay with CCRF-CEM leukemia, 40.2 µM; in the assay with SN12C renal, 49.2 µM; with 786-0 renal it was 73.4 µM; in the assay with SK-OV-3 ovarian, more than 100 µM. In addition, the TGI is 38.1 µM with KM12 colon; 39.7 µM in the assay with MCF7 breast; 44.4 µM with MALME-3M melanoma; 45 µM in the assay on RXF 393 renal; 94 µM with TK-10 renal; more than 100 µM in the assay with OVCAR-4 ovarian. The TGI in the assay on HCT-116 colon is 62.6 µM; with PC-3 prostate, more than 100 µM; with EKVX NSCLC, 74.8 µM; with MOLT-4 leukemia it was more than 100 µM. For the same compound, the GI50 in the assay on MCF7 breast is 15.9 µM; in the assay with MALME-3M melanoma, 9.99 µM; with HCT-116 colon, 16 µM; with MOLT-4 leukemia, 17.8 µM.

As to `C=CCc1cc(-c2cc(CC=C)c(O)c(CN(CC)CC)c2)cc(CN(CC)CC)c1O`, the TGI in the assay on HOP-62 NSCLC was 76.8 µM; in the assay with DU-145 prostate, more than 100 µM; with CCRF-CEM leukemia, 79.1 µM; in the assay on SN12C renal, more than 100 µM; in the assay with 786-0 renal it was more than 100 µM; in the assay on SK-OV-3 ovarian, more than 100 µM. The TGI in the assay on KM12 colon is more than 100 µM; in the assay with MCF7 breast it was more than 100 µM; in the assay with MALME-3M melanoma, 32.8 µM; in the assay on RXF 393 renal it was 52 µM; in the assay on TK-10 renal, more than 100 µM; in the assay on OVCAR-4 ovarian it was more than 100 µM. Moreover, the TGI in the assay with HCT-116 colon is 55.9 µM; with PC-3 prostate it was more than 100 µM; with EKVX NSCLC, more than 100 µM; in the assay with MOLT-4 leukemia, more than 100 µM.
